Test results taken from BindingDB's records for doi:10.1016/s0960-894x(01)00264-5 (Shionogi, 2001).
pIC50: −log10 of the molar value.

Target: Chymotrypsinogen A (Bos taurus) (UniProt P00766)
Assay: Compound was evaluated for its inhibitory activity against bovine pancreatic alpha-chymotrypsin

For `Cc1ccc(N2C(=O)N(c3ccc(C)cc3)C2=O)cc1` [1,3-Di-p-tolyl-[1,3]diazetidine-2,4-dione], the pIC50 was 8.62.
